Source: US20070167488A1, “Novel therapeutic use” (Leo Pharma A/S, priority 2003, published 2007)

Experiments:
[1] = test system: IFN-γ; test: IFN-γ production by spleen cells of immunized, dosed mice after in vitro restimulation with PLP139-153; assay type: cell-based, mouse; conditions: example 6; 50 mg/kg i.p. daily for 10 days, vs vehicle treated group; listed as compound 226
[2] = test system: IL-2; test: IL-2 production by spleen cells of immunized, dosed mice after in vitro restimulation with PLP139-153; assay type: cell-based, mouse
[3] = test system: EAE in C57BL/6 mice immunized with a peptide from myelin oligodendrocyte glycoprotein (MOG35-55); test: Second EAE model: C57BL/6JBom mice immunized with MOG35-55 peptide; assay type: in vivo, mouse
[4] = test system: IL-17; test: IL-17 production by spleen cells of immunized, dosed mice after in vitro restimulation with PLP139-153; assay type: cell-based, mouse; conditions: example 6; 50 mg/kg i.p. daily for 10 days, vs vehicle treated group; listed as compound 226
[5] = test system: gene expression in inflammatory cells in the spleen; test: Oligonucleotide array of spleen cDNA from treated and control EAE mice; assay type: in vivo, mouse
Procedure: Control mice were given suspension vehicle as described in example 1. On day 7 after treatment, the mice (both treated and control) were sacrificed and their spleens were excised, submerged into the RNA storage solution RNA-later (Sigma-Aldrich, St. Louis, USA) and stored at −80° C. Total RNA was extracted from the mouse spleens using the TRIZOL extraction procedure according to the manufacturer's protocol followed by DNAse treatment (Invitrogen, Carlsbad, Calif., USA). The RNA quality was visualized by agarose gel electrophoresis. Ten μg total RNA was converted into purified ^33P-labelled cDNA probe according to the Atlas Pure Total RNA labelling protocol (BD Biosciences, Palo Alto, Calif., USA).
Labelled probes (10×10^6 CPM) were denatured at 95° C. for 2 minutes and cooled at 4° C. for 2 minutes prior to hybridization to oligonucleotide arrays comprising about 5.000 mouse genes in duplicate dots (Atlas Plastic Mouse 5K MicroArray, BD Biosciences, Palo Alto, Calif., USA). Arrays were hybridized for 16 h at 60° C. with rotation according to the manufacturer's protocol. After hybridization and appropriate washing steps, the arrays were imaged using phospho imager technology together with a STORM 860 scanner (Molecular Dynamics, Sunnyvale, Calif., USA). Subsequently, the images were analysed using the Atlas Image 2.7 software (BD Biosciences, Palo Alto, Calif., USA).

[6] = test system: EAE induced in SJL/J mice with a peptide from myelin proteolipid protein (PLP139-153); test: EAE model in SJL/J mice immunized with PLP139-153 peptide; assay type: in vivo, mouse
[7] = test system: IL-6; test: IL-6 production by spleen cells of immunized, dosed mice after in vitro restimulation with PLP139-153; assay type: cell-based, mouse; conditions: example 6; 50 mg/kg i.p. daily for 10 days, vs vehicle treated group; listed as compound 226
[8] = test system: lymphocyte adhesion to inflamed vessels; conditions: G. Constantin et al., J. Immunol. 162, 1999; cited from earlier work
[9] = target: JAK-2 kinase (Mus musculus, UniProt Q62120); conditions: J. J. Bright et al., J. Immunol. 162, 1999; cited from earlier work
Chain of JAK-2 kinase (Q62120 whole entry): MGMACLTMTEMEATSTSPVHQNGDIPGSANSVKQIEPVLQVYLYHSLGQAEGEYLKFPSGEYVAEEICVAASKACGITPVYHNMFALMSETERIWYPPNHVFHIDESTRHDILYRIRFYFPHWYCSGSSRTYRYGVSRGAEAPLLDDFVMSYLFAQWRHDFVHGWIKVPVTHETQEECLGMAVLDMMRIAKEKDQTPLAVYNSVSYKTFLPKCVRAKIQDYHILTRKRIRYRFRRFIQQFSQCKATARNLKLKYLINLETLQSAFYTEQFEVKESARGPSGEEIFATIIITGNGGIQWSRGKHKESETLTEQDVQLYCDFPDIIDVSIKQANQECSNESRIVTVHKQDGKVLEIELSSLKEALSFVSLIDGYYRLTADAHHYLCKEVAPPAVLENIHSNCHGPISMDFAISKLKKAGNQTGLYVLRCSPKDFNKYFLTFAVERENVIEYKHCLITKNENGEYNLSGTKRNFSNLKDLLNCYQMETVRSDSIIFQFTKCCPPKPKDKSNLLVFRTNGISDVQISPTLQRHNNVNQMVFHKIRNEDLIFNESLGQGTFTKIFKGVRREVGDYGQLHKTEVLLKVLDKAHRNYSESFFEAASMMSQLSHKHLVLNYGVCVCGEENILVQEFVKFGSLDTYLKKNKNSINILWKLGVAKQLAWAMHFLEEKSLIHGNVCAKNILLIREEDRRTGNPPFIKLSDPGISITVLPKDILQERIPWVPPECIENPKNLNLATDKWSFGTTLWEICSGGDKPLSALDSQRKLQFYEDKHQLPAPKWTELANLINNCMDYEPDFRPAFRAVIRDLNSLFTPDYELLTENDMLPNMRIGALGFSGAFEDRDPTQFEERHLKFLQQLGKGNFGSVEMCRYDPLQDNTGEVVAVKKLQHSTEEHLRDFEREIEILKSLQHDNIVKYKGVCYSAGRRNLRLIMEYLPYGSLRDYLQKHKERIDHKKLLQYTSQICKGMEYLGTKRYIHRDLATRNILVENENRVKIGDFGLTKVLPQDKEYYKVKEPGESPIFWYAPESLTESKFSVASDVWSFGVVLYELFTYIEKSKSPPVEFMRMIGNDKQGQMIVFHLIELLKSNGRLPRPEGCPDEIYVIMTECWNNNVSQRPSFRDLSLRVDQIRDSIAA

[10] = MOG35-55, day 0-21, 50 mg/kg i.p. daily
[11] = Exp. 1, terminated day 21, 50 mg/kg i.p. daily
[12] = Exp. 2, terminated day 21, 4 mg/kg i.p. daily
[13] = Exp. 2, terminated day 21, 10 mg/kg i.p. daily
[14] = Exp. 2, terminated day 21, 25 mg/kg i.p. daily
[15] = Exp. 2, terminated day 21, 50 mg/kg i.p. daily
[16] = Exp. 3, terminated day 28, 25 mg/kg i.p. daily
[17] = Exp. 3, terminated day 28, 50 mg/kg i.p. daily
[18] = Exp. 4, terminated day 35, 50 mg/kg i.p. daily

## Cc1cc(C)c(C=C2C(=O)Nc3ccccc32)[nH]1 [Compound 226, 3-(3,5-dimethyl-1H-pyrrol-2-ylmethylene)-1,3-dihydro-indol-2-one]
[1]
  Level of antigen-specific IFN-γ production of spleen cells: clearly reduced
[2]; 50 mg/kg i.p. daily for 10 days, spleen cells day 10, PLP139-153, 3 days culture
  IL-2 production of restimulated spleen cells after in vivo dosing: markedly inhibited
[2]; 10^−7 M in vitro for 3 days
  IL-2 production of cells from suspension vehicle treated mice on in vitro incubation with compound: did not inhibit
[2]; example 6, 50 mg/kg i.p. daily for 10 days, vs vehicle treated group, listed as compound 226
  Level of antigen-specific IL-2 production of spleen cells: clearly reduced
[3]; MOG35-55, 50 mg/kg i.p.
  Effect on disease development (in words): significant effect on disease development
[3]; [10]
  AUC (mean) of the disease score: 2.65
  inhibition (%): 83%
[4]
  Level of antigen-specific IL-17 production of spleen cells: clearly reduced
[5]; day 7, daily dosing from day 0
  Genes on the Atlas MicroArray differentially expressed, treated vs control mice: Approximately 1.5%
[5]; day 7, treated vs control mice
  Expression of genes encoding adhesion molecules (lymphocyte antigens 6 locus D, 6 locus E, 84): upregulated
  Expression of genes encoding interleukin 1 receptor, interleukin 10 receptor alpha, TNF receptor and TNF receptor-associated factor 1: downregulated
[6]; [11]
  AUC (mean) of the disease score: 1.8
  inhibition (%): 90%
[6]; [12]
  AUC (mean) of the disease score: 21.2
  inhibition (%): 17%
[6]; [13]
  AUC (mean) of the disease score: 19.6
  inhibition (%): 23%
[6]; [14]
  AUC (mean) of the disease score: 4.6
  inhibition (%): 82%
[6]; [15]
  AUC (mean) of the disease score: 0.6
  inhibition (%): 98%
[6]; [16]
  AUC (mean) of the disease score: 11.9
  inhibition (%): 70%
[6]; [17]
  AUC (mean) of the disease score: 6.6
  inhibition (%): 83%
[6]; [18]
  AUC (mean) of the disease score: 21.9
  inhibition (%): 65%
[6]; SJL/J mice, PLP139-153, doses as in tables 1 and 3
  Inhibition of EAE compared with the suspension vehicle group (in words): significantly inhibit
[6]; experiments 3 and 4, prolonged with one and two weeks
  Effect on development of EAE in prolonged experiments (in words): delays development of EAE rather than prevents the disease
[7]
  Level of antigen-specific IL-6 production of spleen cells: clearly reduced

## N#C/C(=C\c1ccc(O)c(O)c1)C(=O)NCc1ccccc1 [tyrphostin B42]
[8]
  Inhibition of lymphocyte adhesion to inflamed vessels: effective inhibitor
[9]
  Inhibition of IL-12 induced tyrosine phosphorylation and activation of JAK-2 kinase: inhibit
